One series can be described thus: LD50's in mice. Particulars: mouse, in vivo, ip; i.p. administration to mice. How it is done: The LD50's of compounds of formula were determined by conventional techniques by i.p. administration to mice.
The nature of series [1]: Effect of pyrazolidinones on bodyweight of rats (single oral dose). The format is in vivo. Particulars: 0.22 m moles/kilogram bodyweight, two days after administration. How it is done: The compound of formula (I) prepared by the methods described in Examples 1 and 2 were administered orally to rats at a dose corresponding to 0.22 m moles/kilogram bodyweight. Two days after administration the weight of the treated rats was compared with control and the difference expressed as a percentage of the weight of the control animals.

Series [2] can be described thus: Effect of varying daily oral doses of 1-n-decyl pyrazolidin-3-one on rat bodyweight. As to conditions: for Percent Change from Initial Bodyweight (Mean ± S.E.M.) Day 5: Day 5, rats approx. 575 grams; for Percent Change from Initial Bodyweight (Mean ± S.E.M.) Day 10: Day 10, rats approx. 575 grams. The format is in vivo, Male Sprague-Dawley rats. How it is done: Male Sprague-Dawley rats were acclimatized to laboratory conditions for approximately four weeks prior to the experiment being carried out. The rats were maintained on a 12 hr/12 hr light dark cycle and had continuous access to food and water. Rats weighing approx. 575 grams were housed 4 to a cage and each rat treated daily with an oral injection of either saline vechicle or one of three doses of 1-n-decylpyrazolidinone dissolved in saline vehicle. The saline vehicle was prepared fresh each day.

Series [3] in a line: Effect of 1-n-decyl pyrazolidin-3-one on rat bodyweight and food consumption. The format is in vivo, Male Sprague-Dawley rats. The method, then:
Male Sprague-Dawley rats were acclimatized as described in Example 6. The Rats (approx. 300 grams) were housed individually to present measurement of food consumption as well as bodyweight. Animals were treated once daily by oral […] guage either with saline or with 1-n-decyl pyrazolidin-3-one (25 mg/kg) in saline vehicle. Measurement of bodyweight and food consumption was […] during the recovery days, when treatment with drug has stopped.

The source of these data is EP0035270A2, “Heterocyclic compounds, compositions thereof, their preparation and use” (THE WELLCOME FOUNDATION LIMITED, priority 1980, dated 1981).

Each structure is given as a SMILES string.

In turn, `CCCCCCCCCCCCCCN1CCC(=O)N1.Cl` [CH3(CH2)13-, 1-(n-tetradecyl)-3-pyrazolidone hydrochloride] displayed an LD50 in “LD50's in mice” of 350 mg/kg.
On to `CCCCCCCCCCN1CCC(=O)N1.Cl` [n-decyl, 1-(n-decyl)-3-pyrazolidone hydrochloride], for which, in series [1], the “% weight deviation from control” value is reported as -10.9%. Moreover, the “Percent Change from Initial Bodyweight (Mean ± S.E.M.) Day 5” value in series [2] (10 mg/kg p.o. daily) is given as -2.7 ± 0.3%; in series [2] (15 mg/kg p.o. daily), -3.3 ± 1.0%; in series [2] (20 mg/kg p.o. daily), -3.8 ± 0.6%. Also, the figures for the “Percent Change from Initial Bodyweight (Mean ± S.E.M.) Day 10” value in series [2] (10 mg/kg p.o. daily), in series [2] (15 mg/kg p.o. daily) and in series [2] (20 mg/kg p.o. daily) were -1.1 ± 0.4%, -9.6 ± 1.7% and -11.1 ± 1.8%, respectively. Besides, the “Percent change in amount of food consumed (Mean ± S.E.M.)” value in series [3] (25 mg/kg p.o. once daily, Treatment Day 2) is reported as -1 ±6%; in series [3] (after 25 mg/kg p.o. once daily, Recovery Day 2 (treatment stopped)), -8 ±7%; in series [3] (after 25 mg/kg p.o. once daily, Recovery Day 3 (treatment stopped)), “+13 ±8%”. Also, the 50% lethal dose (LD50) in the series “LD50's in mice” stood at 500 mg/kg.
In turn, `CCCCCCCCCN1CCC(=O)N1.Cl` [n-nonyl, 1-(n-nonyl)-3-pyrazolidone hydrochloride] had an LD50 in “LD50's in mice” of 210 mg/kg.
On the same count and under the same terms, as for `CCCCCCCCN1CCC(=O)N1.Cl` [n-octyl, 1-(n-octyl)-3-pyrazolidone hydrochloride], the figure is 250 mg/kg; as for `CCCCCCCCCCCN1CCC(=O)N1.Cl` [n-undecyl, 1-(n-undecyl)-3-pyrazolidone hydrochloride], 350 mg/kg.
